Measurements published in patent US9718817B2, “Aryl and heteroaryl ether compounds as ROR gamma modulators” (Glenmark Pharmaceuticals S.A., priority 2014, dated 2017).

Molecular target: T1, GST-tagged ROR gamma ligand binding domain (LBD) (Homo sapiens, UniProt P51449)
T1 construct: purchased Invitrogen
T1 sequence (P51449 269-508 limits assumed): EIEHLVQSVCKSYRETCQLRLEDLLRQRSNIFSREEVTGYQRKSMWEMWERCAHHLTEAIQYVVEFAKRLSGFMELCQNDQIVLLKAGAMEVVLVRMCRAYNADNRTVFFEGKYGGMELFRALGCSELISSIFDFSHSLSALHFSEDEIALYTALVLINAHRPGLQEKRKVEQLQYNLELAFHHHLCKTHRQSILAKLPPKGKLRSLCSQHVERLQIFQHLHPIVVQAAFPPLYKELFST
Experiment: TR-FRET assay for ROR gamma (LanthaScreen co-activator peptide recruitment)
Format: biochemical
Details: for IC50: class symbols, from dose response curve; for inhibition at 1 µM: compound 1 μM; for inhibition at 1 µM / inhibition at 10 µM: TR-FRET ratio 520/495, percent of control; for inhibition at 10 µM: compound 10 μM
Procedure, shortened: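 Antagonist mode: 10 nM GST-RORγ LBD pre-incubated with compound 1 h at 22 °C in 25 mM HEPES pH 7.4, 100 mM NaCl, 5 mM DTT, 0.01% BSA, 4% DMSO final. Then 300 nM fluorescein-D22 co-activator peptide plus 10 nM Tb-anti-GST added, 1 h at room temperature. IC50 by nonlinear regression of the 520/495 TR-FRET ratio as percent of no-compound control.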

SMILES	IC50	inhibition at 1 µM	inhibition at 10 µM
CCS(=O)(=O)c1ccc(CC(=O)Nc2ccc(OC3(c4ccc(Cl)c(F)c4)CCCC3)cc2)cc1 [Example 120, N-{4-[1-(4-Chloro-3-fluorophenyl)-cyclopentyloxy]-phenyl}-2-(4-ethanesulfonyl-phenyl)-acetamide]	< 50 nM	84.8%	89.6%
CCS(=O)(=O)c1ccc(CC(=O)Nc2ccc(OC3(c4ccc(Cl)cc4Cl)COC3)cc2)cc1 [Example 47, N-{4-[3-(2,4-Dichlorophenyl)-oxetan-3-yloxy]-phenyl}-2-(4-ethanesulfonyl-phenyl)-acetamide]	< 50 nM	90.3%	93.2%
CCS(=O)(=O)c1ccc(CC(=O)Nc2ccc3c(c2)nc(C(C)(C)Oc2ccc(F)c(F)c2)n3C)cc1 [Example 82, N-{2-[2-(3,4-Difluorophenoxy)propan-2-yl]-1-methyl-1H-benzimidazol-5-yl}-2-[4-(ethylsulfonyl)phenyl]acetamide]	50 to 100 nM	82%	88.4%
CCS(=O)(=O)c1ccc(CC(=O)Nc2ccc(OC3(c4ccc(Cl)c(Cl)c4)CC3)cc2)cc1 [Example 49, N-{4-[1-(3,4-Dichloro-phenyl)-cyclopropoxy]-phenyl}-2-(4-ethanesulfonyl-phenyl)-acetamide]	50 to 100 nM	69.1%	80%
CCS(=O)(=O)c1ccc(CC(=O)Nc2ccc(OC3(c4ccc(Cl)c(F)c4)COC3)cc2)cc1 [Example 45, N-{4-[3-(4-Chloro-3-fluoro-phenyl)-oxetan-3-yloxy]-phenyl}-2-(4-ethanesulfonyl-phenyl)-acetamide]	< 50 nM	76.8%	85.7%
CCS(=O)(=O)c1ccc(CC(=O)Nc2ccc(OC3(c4ccc(F)cc4F)CCC3)c(F)c2)cc1 [Example 141, N-(4-(1-(2,4-Difluorophenyl)cyclobutoxy)-3-fluorophenyl)-2-(4-(ethylsulfonyl)phenyl)acetamide]	< 50 nM	81.4%	75.2%
CCS(=O)(=O)c1ccc(CC(=O)Nc2ccc(OC3(c4ccc(Cl)cc4F)CC3)c(F)c2)cc1 [Example 99, N-{4-[1-(4-Chloro-2-fluoro-phenyl)-cyclopropoxy]-3-fluoro-phenyl}-2-(4-ethanesulfonyl-phenyl)-acetamide]	< 50 nM	81.7%	81.1%
CCS(=O)(=O)c1ccc(CC(=O)Nc2ccc(OC(C)(C)c3ccc(Cl)cc3Cl)nc2)cc1 [Example 58, N-(6-{[2-(2,4-Dichlorophenyl)propan-2-yl]oxy}pyridin-3-yl)-2-[4-(ethylsulfonyl)phenyl]acetamide]	< 50 nM	83.7%	86.7%
CCS(=O)(=O)c1ccc(CC(=O)Nc2ccc3c(c2)nc(C(C)(C)Oc2ccc(Cl)c(Cl)c2)n3C)cc1 [Example 85, N-{2-[2-(3,4-Dichlorophenoxy)propan-2-yl]-1-methyl-1H-benzimidazol-5-yl}-2-[4-(ethylsulfonyl)phenyl]acetamide]	< 50 nM	87.1%	91.2%
CCS(=O)(=O)c1ccc(CC(=O)Nc2ccc(OC3(c4ccc(Cl)c(F)c4)CCC3)nc2)cc1 [Example 54, N-{6-[1-(4-Chloro-3-fluoro-phenyl)-cyclobutoxy]-pyridin-3-yl}-2-(4-ethanesulfonyl-phenyl)-acetamide]	< 50 nM	92%	93.7%
CCS(=O)(=O)c1ccc(CC(=O)Nc2ccc(OC(C)(C)c3ccc(C(F)(F)F)c(F)c3)cc2)cc1 [Example 10, 2-(4-Ethanesulfonyl-phenyl)-N-{4-[1-(3-fluoro-4-trifluoromethyl-phenyl)-1-methyl-ethoxy]-phenyl}-acetamide]	–	70.9%	81.5%
CCN(C(=O)C(C)(C)Oc1ccc(NC(=O)Cc2ccc(S(=O)(=O)CC)cc2)cc1F)c1ccc(Cl)c(F)c1 [Example 131, N-(4-Chloro-3-fluorophenyl)-N-ethyl-2-(4-(2-(4-(ethylsulfonyl)phenyl)acetamido)-2-fluorophenoxy)-2-methylpropanamide]	50 to 100 nM	69.8%	72.9%
CCS(=O)(=O)c1ccc(CC(=O)Nc2ccc(OC3(c4ccc(Cl)cc4Cl)CC3)c(F)c2)cc1 [Example 138, N-(4-((1-(2,4-Dichlorophenyl)cyclopropyl)oxy)-3-fluorophenyl)-2-(4-(ethylsulfonyl)phenyl)acetamide]	< 50 nM	86.8%	83.6%
CCn1c(C(C)(C)Oc2ccc(Cl)c(F)c2)nc2cc(NC(=O)Cc3ccc(S(=O)(=O)CC)cc3)ccc21 [Example 87, N-{2-[1-(4-Chloro-3-fluoro-phenoxy)-1-methyl-ethyl]-1-ethyl-1H-benzoimidazol-5-yl}-2-(4-ethanesulfonyl-phenyl)-acetamide]	< 50 nM	90.8%	94.8%
CCS(=O)(=O)c1ccc(CC(=O)Nc2ccc(OC3(c4ccc(F)cc4F)COC3)c(F)c2)cc1 [Example 142, N-(4-((3-(2,4-Difluorophenyl)oxetan-3-yl)oxy)-3-fluorophenyl)-2-(4-(ethylsulfonyl)phenyl)acetamide]	< 50 nM	81.1%	81.5%
CCS(=O)(=O)c1ccc(CC(=O)Nc2ccc(OC3(c4ccc(Cl)c(Cl)c4)CCOCC3)cc2)cc1 [Example 39, N-{4-[4-(3,4-Dichloro-phenyl)-tetrahydro-pyran-4-yloxy]-phenyl}-2-(4-ethanesulfonyl-phenyl)-acetamide]	50 to 100 nM	87.7%	94.8%
CCS(=O)(=O)c1ccc(CC(=O)Nc2ccc(C#CC(C)(C)Oc3ccc(OC(F)F)cc3)cc2)cc1 [Example 78, N-{4-[3-(4-Difluoromethoxy-phenoxy)-3-methyl-but-1-yn-1-yl]-phenyl}-2-(4-ethanesulfonyl-phenyl)-acetamide]	< 50 nM	85.2%	87.4%
CCS(=O)(=O)c1ccc(CC(=O)Nc2ccc(OC(C)(C)c3nc4ccc(Cl)cc4n3C)cc2)cc1 [Example 18, N-{4-[1-(6-Chloro-1-methyl-1H-benzoimidazol-2-yl)-1-methyl-ethoxy]-phenyl}-2-(4-ethanesulfonyl-phenyl)-acetamide]	> 100 nM	78.6%	91%
CCS(=O)(=O)c1ccc(CC(=O)Nc2ccc3c(c2)nc(C(C)(C)Oc2ccc(C(F)(F)F)cc2)n3C)cc1 [Example 81, 2-[4-(Ethylsulfonyl)phenyl]-N-(1-methyl-2-{2-[4-(trifluoromethyl)phenoxy]propan-2-yl}-1H-benzimidazol-5-yl)acetamide]	> 100 nM	76%	88.9%
CCS(=O)(=O)c1ccc(CC(=O)Nc2ccc(C#CC(C)(C)Oc3cc(F)c(F)c(F)c3)cc2)cc1 [Example 71, 2-(4-Ethanesulfonyl-phenyl)-N-{4-[3-methyl-3-(3,4,5-trifluoro-phenoxy)-but-1-yn-1-yl]-phenyl}-acetamide]	< 50 nM	75.9%	79.9%
CCS(=O)(=O)c1ccc(CC(=O)Nc2ccc(C#CC(C)(C)Oc3c(F)cc(F)cc3F)cc2)cc1 [Example 73, 2-(4-Ethanesulfonyl-phenyl)-N-{4-[3-methyl-3-(2,4,6-trifluoro-phenoxy)-but-1-yn-1-yl]-phenyl}-acetamide]	< 50 nM	75.4%	78.6%
